# Assay results from paper PMC5218480 (PLoS ONE, 2017).
# System: MV-4-11 cells
# Assay: Gene expression microarray analysis (Affymetrix PrimeView) and GSEA
# Type: cell-based, human
# Design: RFU PODN (11730768_x_at) / Fold change /veh PODN (11730768_x_at) / RFU LINC00158 (11744669_a_at) / Fold change /veh LINC00158 (11744669_a_at) / RFU DUSP10 (11751237_a_at) / Fold change /veh DUSP10 (11751237_a_at) / RFU ID3 (11757404_x_at) / Fold change /veh ID3 (11757404_x_at) / RFU PLEKHG5 (11737974_s_at) / Fold change /veh PLEKHG5 (11737974_s_at) / RFU LRRC4B (11730491_at) / Fold change /veh LRRC4B (11730491_at) / RFU GIMAP4 (11747438_a_at) / Fold change /veh GIMAP4 (11747438_a_at) / RFU KRT8 (11758183_x_at) / Fold change /veh KRT8 (11758183_x_at) / RFU CNN1 (11734310_a_at) / Fold change /veh CNN1 (11734310_a_at) / RFU VPS37D (11726825_at) / Fold change /veh VPS37D (11726825_at) / RFU C10orf10 (11716522_x_at) / Fold change /veh C10orf10 (11716522_x_at) / RFU KIR2DL2 /// KIR2DL4 /// KIR2DL5A /// KIR2DL5B /// KIR2DS1 /// KIR2DS2 /// KIR2DS3 /// KIR2DS4 /// KIR3DL3 /// KIR3DL3 /// KIR3DS1 (11738374_at) / Fold change /veh KIR2DL2 /// KIR2DL4 /// KIR2DL5A /// KIR2DL5B /// KIR2DS1 /// KIR2DS2 /// KIR2DS3 /// KIR2DS4 /// KIR3DL3 /// KIR3DL3 /// KIR3DS1 (11738374_at) / RFU C1QL1 (11718748_at) / Fold change /veh C1QL1 (11718748_at) / RFU TMPRSS4 (11747572_a_at) / Fold change /veh TMPRSS4 (11747572_a_at) / RFU HAMP (11756126_x_at) / Fold change /veh HAMP (11756126_x_at) / RFU RNFT2 (11725882_a_at) / Fold change /veh RNFT2 (11725882_a_at) / RFU NR4A2 (11747474_a_at) / Fold change /veh NR4A2 (11747474_a_at) / RFU ABCC12 (11746883_a_at) / Fold change /veh ABCC12 (11746883_a_at) / RFU TMEM136 (11760407_x_at) / Fold change /veh TMEM136 (11760407_x_at) / RFU CLDN22 /// WWC2 (11732394_at) / Fold change /veh CLDN22 /// WWC2 (11732394_at) / RFU HLA-DPB1 (11760878_x_at) / Fold change /veh HLA-DPB1 (11760878_x_at) / RFU SPINT1 (11716480_a_at) / Fold change /veh SPINT1 (11716480_a_at) / RFU GAP43 (11754022_s_at) / Fold change /veh GAP43 (11754022_s_at) / RFU A4GNT (11735810_at) / Fold change /veh A4GNT (11735810_at) / RFU PRB3 (11715151_x_at) / Fold change /veh PRB3 (11715151_x_at) / RFU TUBB4B (11761932_at) / Fold change /veh TUBB4B (11761932_at) / RFU CAPN14 (11732068_a_at) / Fold change /veh CAPN14 (11732068_a_at) / RFU TMCC2 (11721928_a_at) / Fold change /veh TMCC2 (11721928_a_at) / RFU IRGQ (11745062_a_at) / Fold change /veh IRGQ (11745062_a_at) / RFU FAM174B (11720279_a_at) / Fold change /veh FAM174B (11720279_a_at) / RFU TMPRSS4 (11748680_a_at) / Fold change /veh TMPRSS4 (11748680_a_at) / RFU FAM212B (11763350_a_at) / Fold change /veh FAM212B (11763350_a_at) / RFU PLEKHG5 (11743358_a_at) / Fold change /veh PLEKHG5 (11743358_a_at) / RFU ZSCAN30 (11745921_a_at) / Fold change /veh ZSCAN30 (11745921_a_at) / RFU CMKLR1 (11741424_a_at) / Fold change /veh CMKLR1 (11741424_a_at) / RFU LOC101060620 /// MAPK8IP1 (11723275_at) / Fold change /veh LOC101060620 /// MAPK8IP1 (11723275_at) / RFU SPTSSB (11747773_x_at) / Fold change /veh SPTSSB (11747773_x_at) / RFU PRSS12 (11739890_at) / Fold change /veh PRSS12 (11739890_at) / RFU BIN1 (11741810_x_at) / Fold change /veh BIN1 (11741810_x_at) / RFU WNT11 (11732464_a_at) / Fold change /veh WNT11 (11732464_a_at) / RFU C10orf10 (11716521_a_at) / Fold change /veh C10orf10 (11716521_a_at) / RFU C5orf56 (11738089_at) / Fold change /veh C5orf56 (11738089_at) / RFU CYB561 (11721691_x_at) / Fold change /veh CYB561 (11721691_x_at) / RFU ANKRD19P (11752326_a_at) / Fold change /veh ANKRD19P (11752326_a_at) / RFU OR2T12 /// OR2T33 /// OR2T8 (11738714_s_at) / Fold change /veh OR2T12 /// OR2T33 /// OR2T8 (11738714_s_at) / RFU VCAN (11748164_a_at) / Fold change /veh VCAN (11748164_a_at) / RFU JSRP1 (11732532_at) / Fold change /veh JSRP1 (11732532_at) / RFU KRTAP10-11 (11738290_x_at) / Fold change /veh KRTAP10-11 (11738290_x_at) / RFU MYO3A (11730013_a_at) / Fold change /veh MYO3A (11730013_a_at) / RFU EBF3 (11725865_a_at) / Fold change /veh EBF3 (11725865_a_at) / RFU CAMK2N1 (11719241_x_at) / Fold change /veh CAMK2N1 (11719241_x_at) / RFU C5orf56 (11738088_a_at) / Fold change /veh C5orf56 (11738088_a_at) / RFU OLFML3 (11715873_a_at) / Fold change /veh OLFML3 (11715873_a_at) / RFU LOC100653217 /// NTM (11731650_a_at) / Fold change /veh LOC100653217 /// NTM (11731650_a_at) / RFU MAPK11 (11762145_a_at) / Fold change /veh MAPK11 (11762145_a_at) / RFU FIZ1 (11724087_x_at) / Fold change /veh FIZ1 (11724087_x_at) / RFU OASL (11726364_x_at) / Fold change /veh OASL (11726364_x_at) / RFU SOX15 (11748057_x_at) / Fold change /veh SOX15 (11748057_x_at) / RFU CD79A (11719716_a_at) / Fold change /veh CD79A (11719716_a_at) / RFU HIST1H1D (11736915_at) / Fold change /veh HIST1H1D (11736915_at) / RFU CASKIN2 (11723855_a_at) / Fold change /veh CASKIN2 (11723855_a_at) / RFU LOC730098 (11760151_x_at) / Fold change /veh LOC730098 (11760151_x_at) / RFU OR4N2 (11742367_at) / Fold change /veh OR4N2 (11742367_at) / RFU PRRT2 (11749266_a_at) / Fold change /veh PRRT2 (11749266_a_at) / RFU SNX32 (11753110_a_at) / Fold change /veh SNX32 (11753110_a_at) / RFU CDHR5 (11726645_a_at) / Fold change /veh CDHR5 (11726645_a_at) / RFU RCAN1 (11760418_a_at) / Fold change /veh RCAN1 (11760418_a_at) / RFU FAM167A (11723789_a_at) / Fold change /veh FAM167A (11723789_a_at) / RFU FAM26E (11764081_at) / Fold change /veh FAM26E (11764081_at) / RFU ISYNA1 (11749810_s_at) / Fold change /veh ISYNA1 (11749810_s_at) / RFU ACY1 (11761880_at) / Fold change /veh ACY1 (11761880_at) / RFU 11764098_at / Fold change /veh 11764098_at / RFU SAMD14 (11745864_x_at) / Fold change /veh SAMD14 (11745864_x_at) / RFU NPB (11741838_a_at) / Fold change /veh NPB (11741838_a_at) / RFU TMPRSS6 (11731388_a_at) / Fold change /veh TMPRSS6 (11731388_a_at) / RFU KRTAP10-2 (11738614_at) / Fold change /veh KRTAP10-2 (11738614_at) / RFU ARHGAP8 /// PRR5-ARHGAP8 (11727945_x_at) / Fold change /veh ARHGAP8 /// PRR5-ARHGAP8 (11727945_x_at) / RFU KRTAP5-7 /// NADSYN1 (11734609_at) / Fold change /veh KRTAP5-7 /// NADSYN1 (11734609_at) / RFU RASL12 (11751679_a_at) / Fold change /veh RASL12 (11751679_a_at) / RFU CDKN2B (11736163_a_at) / Fold change /veh CDKN2B (11736163_a_at) / RFU PRF1 (11729649_at) / Fold change /veh PRF1 (11729649_at) / RFU, ZNF638 /// ZNF638-IT1 / Fold change vs veh, ZNF638 /// ZNF638-IT1 / RFU, PANK3 / Fold change vs veh, PANK3 / RFU, SH3YL1 / Fold change vs veh, SH3YL1 / RFU, ZEB2 / Fold change vs veh, ZEB2 / RFU, NRIP1 / Fold change vs veh, NRIP1 / RFU, PTTG1IP / Fold change vs veh, PTTG1IP / RFU, CAPN2 / Fold change vs veh, CAPN2 / RFU, MED14 / Fold change vs veh, MED14 / RFU, SNORA58 / Fold change vs veh, SNORA58 / RFU, C1orf63 / Fold change vs veh, C1orf63 / RFU, LRRFIP1 / Fold change vs veh, LRRFIP1 / RFU, NDUFAF7 / Fold change vs veh, NDUFAF7 / RFU, SLC12A2 / Fold change vs veh, SLC12A2 / RFU, IBTK / Fold change vs veh, IBTK / RFU, ESF1 / Fold change vs veh, ESF1 / Fold change vs veh, TMEM50B / RFU, TAOK1 / Fold change vs veh, TAOK1 / RFU, ACBD3 / Fold change vs veh, ACBD3 / RFU, TMA16 / Fold change vs veh, TMA16 / RFU, RWDD3 / Fold change vs veh, RWDD3 / RFU, BCAT1 / Fold change vs veh, BCAT1 / RFU, EDEM3 / Fold change vs veh, EDEM3 / RFU, TMEM33 / Fold change vs veh, TMEM33 / RFU, WDR75 / Fold change vs veh, WDR75 / RFU, AHCTF1 / Fold change vs veh, AHCTF1 / RFU, TFRC / Fold change vs veh, TFRC / RFU, ZDHHC17 / Fold change vs veh, ZDHHC17 / RFU, NOM1 / Fold change vs veh, NOM1 / RFU, ARL8B / Fold change vs veh, ARL8B / RFU, ZBTB11 / Fold change vs veh, ZBTB11 / RFU, TAMM41 / Fold change vs veh, TAMM41 / RFU, KIAA1704 /// LOC100996395 / Fold change vs veh, KIAA1704 /// LOC100996395 / RFU, ING1 / Fold change vs veh, ING1 / RFU, TRMT61B / Fold change vs veh, TRMT61B / RFU, FUBP3 / Fold change vs veh, FUBP3 / RFU, TP53 / Fold change vs veh, TP53 / RFU, TNKS2 / Fold change vs veh, TNKS2 / RFU, ZFP14 / Fold change vs veh, ZFP14 / RFU, ACTR2 / Fold change vs veh, ACTR2 / RFU, PPP3R1 / Fold change vs veh, PPP3R1 / RFU, PIK3R1 / Fold change vs veh, PIK3R1 / RFU, HNRNPA1 / Fold change vs veh, HNRNPA1 / RFU, RNF170 / Fold change vs veh, RNF170 / RFU, ZNF28 / Fold change vs veh, ZNF28 / RFU, RNGTT / Fold change vs veh, RNGTT / RFU, OGT / Fold change vs veh, OGT / RFU, BRD1 / Fold change vs veh, BRD1 / RFU, MARS / Fold change vs veh, MARS / RFU, ZNF655 / Fold change vs veh, ZNF655 / RFU, FAHD1 / Fold change vs veh, FAHD1 / RFU, BDP1 / Fold change vs veh, BDP1 / RFU, LRRCC1 / Fold change vs veh, LRRCC1 / RFU, ARID1A / Fold change vs veh, ARID1A / RFU, ZNF146 / Fold change vs veh, ZNF146 / RFU, ZNF330 / Fold change vs veh, ZNF330 / RFU, GPN3 / Fold change vs veh, GPN3 / RFU, C9orf123 / Fold change vs veh, C9orf123 / RFU, N4BP2L2 / Fold change vs veh, N4BP2L2 / RFU, ARFIP1 / Fold change vs veh, ARFIP1 / RFU, FAM179B / Fold change vs veh, FAM179B / RFU, BCL10 / Fold change vs veh, BCL10 / RFU, UHRF1BP1L / Fold change vs veh, UHRF1BP1L / RFU, BET1 / Fold change vs veh, BET1 / RFU, CNOT2 / Fold change vs veh, CNOT2 / RFU, ZNF268 / Fold change vs veh, ZNF268 / Fold change vs veh, ZNF507 / RFU, DGCR2 / Fold change vs veh, DGCR2 / RFU, WDSUB1 / Fold change vs veh, WDSUB1 / Fold change vs veh, HSP90B1 /// MIR3652 / RFU, ADSS / Fold change vs veh, ADSS / RFU, GK / Fold change vs veh, GK / RFU, ZNF148 / Fold change vs veh, ZNF148 / RFU, TAF9 / Fold change vs veh, TAF9 / RFU, SLC1A5 / Fold change vs veh, SLC1A5 / RFU, SLMO2 / Fold change vs veh, SLMO2 / RFU, ABCC4 / Fold change vs veh, ABCC4 / RFU, LOC101060439 /// RAP1B / Fold change vs veh, LOC101060439 /// RAP1B / RFU, RFX7 / Fold change vs veh, RFX7 / RFU, GTPBP10 / Fold change vs veh, GTPBP10 / RFU, CNEP1R1 / Fold change vs veh, CNEP1R1 / RFU, BIVM-ERCC5 /// ERCC5 / Fold change vs veh, BIVM-ERCC5 /// ERCC5 / RFU, ILF3 / Fold change vs veh, ILF3 / RFU 11762660_at / Fold change /veh 11762660_at / RFU VCAN (11757783_s_at) / Fold change /veh VCAN (11757783_s_at) / RFU DDX43 (11728927_at) / Fold change /veh DDX43 (11728927_at) / RFU KRT8 (11758188_x_at) / Fold change /veh KRT8 (11758188_x_at) / RFU NKD1 (11759106_at) / Fold change /veh NKD1 (11759106_at) / RFU SRD5A1 (11742802_a_at) / Fold change /veh SRD5A1 (11742802_a_at) / RFU TPSAB1 /// TPSB2 (11721975_s_at) / Fold change /veh TPSAB1 /// TPSB2 (11721975_s_at) / RFU GSTM3 (11746129_a_at) / Fold change /veh GSTM3 (11746129_a_at) / RFU IL23R (11737362_x_at) / Fold change /veh IL23R (11737362_x_at) / RFU TMEM51 (11727254_a_at) / Fold change /veh TMEM51 (11727254_a_at) / RFU PIWIL2 (11732686_x_at) / Fold change /veh PIWIL2 (11732686_x_at) / RFU ORM1 (11744905_x_at) / Fold change /veh ORM1 (11744905_x_at) / RFU CCDC152 (11743942_at) / Fold change /veh CCDC152 (11743942_at) / RFU ECM1 (11717891_a_at) / Fold change /veh ECM1 (11717891_a_at) / RFU IL23R (11748794_a_at) / Fold change /veh IL23R (11748794_a_at) / RFU TNFAIP8L3 (11732012_x_at) / Fold change /veh TNFAIP8L3 (11732012_x_at) / RFU MBOAT4 (11741988_at) / Fold change /veh MBOAT4 (11741988_at) / RFU 11764193_at / Fold change /veh 11764193_at / RFU TMEM53 (11763286_at) / Fold change /veh TMEM53 (11763286_at) / RFU MAGEB2 (11727129_at) / Fold change /veh MAGEB2 (11727129_at) / RFU TMEM200A (11744735_a_at) / Fold change /veh TMEM200A (11744735_a_at) / RFU CCDC152 (11751479_a_at) / Fold change /veh CCDC152 (11751479_a_at) / RFU FAM211A (11726209_a_at) / Fold change /veh FAM211A (11726209_a_at) / RFU RGS16 (11746705_a_at) / Fold change /veh RGS16 (11746705_a_at) / RFU VCAN (11755009_s_at) / Fold change /veh VCAN (11755009_s_at) / RFU RHOB (11743442_s_at) / Fold change /veh RHOB (11743442_s_at) / RFU RGS16 (11720943_a_at) / Fold change /veh RGS16 (11720943_a_at) / RFU RGS16 (11720944_at) / Fold change /veh RGS16 (11720944_at) / RFU, VPS4B / Fold change vs veh, VPS4B / RFU, CREB1 / Fold change vs veh, CREB1 / RFU, DNAJC13 / Fold change vs veh, DNAJC13 / RFU, GNAQ / Fold change vs veh, GNAQ / RFU, CDK5R1 / Fold change vs veh, CDK5R1 / RFU, ZRANB3 / Fold change vs veh, ZRANB3 / RFU, CUL4A / Fold change vs veh, CUL4A / RFU, CCNY / Fold change vs veh, CCNY / RFU, UFL1 / Fold change vs veh, UFL1 / RFU, COG3 / Fold change vs veh, COG3 / RFU, DIAPH2 / Fold change vs veh, DIAPH2 / RFU, SKA2 / Fold change vs veh, SKA2 / RFU, AFF3 / Fold change vs veh, AFF3 / RFU, LMF1 / Fold change vs veh, LMF1 / RFU, IPO11 / Fold change vs veh, IPO11 / RFU, DFFB / Fold change vs veh, DFFB / RFU, FOXP1 / Fold change vs veh, FOXP1 / RFU, CARD8 / Fold change vs veh, CARD8 / RFU, STRN3 / Fold change vs veh, STRN3 / RFU, ADK / Fold change vs veh, ADK / RFU, RASSF2 / Fold change vs veh, RASSF2 / RFU, WIPF1 / Fold change vs veh, WIPF1 / RFU, LARP1B / Fold change vs veh, LARP1B / RFU, RASA1 / Fold change vs veh, RASA1 / RFU, RB1 / Fold change vs veh, RB1 / RFU, PPFIA1 / Fold change vs veh, PPFIA1 / RFU, MAT2A / Fold change vs veh, MAT2A / RFU, CCT5 / Fold change vs veh, CCT5 / RFU, WDR92 / Fold change vs veh, WDR92 / RFU, CUX1 / Fold change vs veh, CUX1 / RFU, TTC7A / Fold change vs veh, TTC7A / RFU, TMEM135 / Fold change vs veh, TMEM135 / RFU, DEPTOR / Fold change vs veh, DEPTOR / RFU, CPM / Fold change vs veh, CPM / RFU, DNAJB6 / Fold change vs veh, DNAJB6 / RFU, CACNA2D3 / Fold change vs veh, CACNA2D3 / RFU, DTX4 / Fold change vs veh, DTX4 / RFU, TFCP2 / Fold change vs veh, TFCP2 / RFU, GMCL1 /// GMCL1P1 / Fold change vs veh, GMCL1 /// GMCL1P1 / RFU, AEBP2 / Fold change vs veh, AEBP2 / RFU, SNHG1 /// SNORD22 /// SNORD25 /// SNORD26 /// SNORD27 /// SNORD28 /// SNORD29 /// SNORD31 / Fold change vs veh, SNHG1 /// SNORD22 /// SNORD25 /// SNORD26 /// SNORD27 /// SNORD28 /// SNORD29 /// SNORD31 / Fold change (Aza/veh), C12orf56 (ProbeSet 11735607_a_at) / Fold change (ACY-1035/veh), C12orf56 (ProbeSet 11735607_a_at) / Fold change (Aza/veh), FGFR1OP (ProbeSet 11751329_s_at) / Fold change (ACY-1035/veh), FGFR1OP (ProbeSet 11751329_s_at) / Fold change (Aza/veh), VPS36 (ProbeSet 11739960_a_at) / Fold change (ACY-1035/veh), VPS36 (ProbeSet 11739960_a_at) / RFU SYPL1 (11715823_x_at) / Fold change /veh SYPL1 (11715823_x_at) / RFU IGFBP7 (11715501_s_at) / Fold change /veh IGFBP7 (11715501_s_at) / RFU REEP3 (11722064_at) / Fold change /veh REEP3 (11722064_at) / RFU IGLL1 (11728026_x_at) / Fold change /veh IGLL1 (11728026_x_at): dose or concentration left out as unconfirmed
# Conditions: MV-4-11 cells, 48 hours
structure (smiles),measurement,value
Nc1ncn([C@@H]2O[C@H](CO)[C@@H](O)[C@H]2O)c(=O)n1 [azacitidine],RFU HAMP (11756126_x_at),317.78 RFU
